This passage reports EC50, MCC and CC50 results from patent publication US8551965B2, “Anti-viral pyrimidine nucleoside analogues” (University College Cardiff Consultants Limited, priority 2000, dated 2013).

Common to all, as to type: cell-based
The subject of data set [1] is varicella zoster virus (VZV) YS viral strain. The experiment in a line: VZV plaque reduction in tissue culture, YS strain. The conditions noted are these: read-out: EC50 VZV YS.
In data set [2] the test system is human embryonic lung cells. The data set can be described thus: Cytotoxicity to human embryonic lung cells. To be noted: minimum cytotoxic concentration to human embryonic lung cells. An excerpt:
MCC AM is the minimum cytotoxic concentration to human embryonic lung cells.

A short description of data set [3]: Cytotoxicity to human embryonic lung cells. To be noted: 50% cytotoxic concentration to human embryonic lung cells.
The subject of data set [4] is varicella zoster virus (VZV) OKA viral strain. The experiment in a line: microbe, parasite or virus in culture. The conditions noted are these: read-out: EC50 VZV OKA.
Data set [5] relates to varicella zoster virus (VZV) viral strain YS; TK deficient. The experiment in a line: VZV plaque reduction in tissue culture, strain YS, TK deficient. The conditions noted are these: read-out: EC50 VZV TK-YS.
Data set [6] concerns varicella zoster virus (VZV) viral strain 07; TK deficient. The data set can be described thus: microbe, parasite or virus in culture. The conditions noted are these: read-out: EC50 VZV TK-07.
For data set [7], the system named is human embryonic lung cells. The experiment in a line: Cytotoxicity to human embryonic lung cells. To be noted: 50% cytotoxic concentration to human embryonic lung cells.
[8] abbreviates: Human alphaherpesvirus 3, 120 h, reduce viral plaque formation after 5 days by 50% compared to untreated control, YS viral strain.
Setting [9] is: Human alphaherpesvirus 3, 120 h.
[10] abbreviates: reduce viral plaque formation after 5 days by 50% compared to untreated control, OKA viral strain.
The mark [11] stands for this setting: reduce viral plaque formation after 5 days by 50%, viral strain YS, TK deficient.
[12] abbreviates: reduce viral plaque formation after 5 days by 50% compared to untreated control, YS viral strain.
[13] abbreviates: reduce viral plaque formation after 5 days by 50%, viral strain 07, TK deficient.

SMILES strings stand for the structures. Like-named read-outs stand apart in the source and are kept apart here. Some results are limits rather than exact numbers.

As to `Nc1nc2c(ncn2COCCO)c(=O)[nH]1` [Acyclovir, reference compound], in data set [1] (setting [8]), the EC50 came to 1000 nM. In data set [2], this compound registered an MCC greater than 200 µM. The same compound yielded a CC50 in data set [3] greater than 200 µM.

`O=c1[nH]c(=O)n([C@H]2C[C@H](O)[C@@H](CO)O2)cc1/C=C/Br` [BVDU, (E)-5-(2-bromo-vinyl)-2′-deoxyuridine, reference compound]: the EC50 in data set [1] (setting [9]) was 3 nM.

Regarding `CCCCCCCCCCc1cc2cn([C@H]3C[C@H](O)[C@@H](CO)O3)c(=O)nc2o1` [Ex2 WO 98/49177, 3-(2-deoxy-β-D-ribofuranosyl)-6-decyl-2,3-dihydrofuro [2,3-d]pyrimidin-2-one, reference compound], the EC50 in data set [4] (setting [9]) was 15 nM; in data set [5] (setting [9]), greater than 50 µM; in data set [1] (setting [8]), 8 nM; in data set [6] (setting [9]), greater than 50 µM. In data set [2], this compound yielded an MCC greater than 50 µM. In addition, in data set [3], the CC50 is greater than 50 µM.

On to `CCCCCCCCc1ccc(-c2cc3cn([C@H]4C[C@H](O)[C@@H](CO)O4)c(=O)nc3o2)cc1` [Example 6, 3-(2′-deoxy-β-D-ribofuranosyl)-6-(4-n-octylphenyl)-2,3-dihydrofuro[2,3-d]pyrimidin-2-one], for which the EC50 in data set [4] (setting [10]) was 15 nM; in data set [5] (setting [11]), greater than 20 µM; in data set [1] (setting [12]) it was 5 nM; in data set [6] (setting [13]), greater than 20 µM. For the same compound, in data set [2], the MCC entry is on record as “≧20 μM”. In data set [7], this compound yielded a CC50 greater than 200 µM.

On to `O=c1nc2oc(-c3ccccc3)cc2cn1[C@H]1C[C@H](O)[C@@H](CO)O1` [Example 7, 3-(2′-deoxy-β-D-ribofuranosyl)-6-(phenyl)-2,3-dihydrofuro-[2,3-d]pyrimidin-2-one], for which the 50% effective concentration (EC50) is less than 500 nM in data set [4] (setting [10]), 162 µM in data set [5] (setting [11]), less than 500 nM in data set [1] (setting [12]) and greater than 200 µM in data set [6] (setting [13]). This compound returned an MCC in data set [2] greater than 200 µM. The same compound had a CC50 in data set [7] greater than 200 µM.

Turning to `Cc1ccc(-c2cc3cn([C@H]4C[C@H](O)[C@@H](CO)O4)c(=O)nc3o2)cc1` [Example 8, 3-(2′-deoxy-β-D-ribofuranosyl)-6-(4-methylphenyl)-2,3-dihydrofuro-[2,3-d]pyrimidin-2-one], the half-maximal effective concentration (EC50) was less than 500 nM in data set [4] (setting [10]), greater than 200 µM in data set [5] (setting [11]), less than 500 nM in data set [1] (setting [12]) and 103 µM in data set [6] (setting [13]). In data set [2], this compound displayed an MCC greater than 200 µM. Also, in data set [7], the CC50 is greater than 200 µM.

Regarding `O=c1nc2oc(-c3ccc(F)cc3)cc2cn1[C@H]1C[C@H](O)[C@@H](CO)O1` [Example 10, 3-(2′-deoxy-β-D-ribofuranosyl)-6-(4-fluorophenyl)-2,3-dihydrofuro-[2,3-d]pyrimidin-2-one], the 50% effective concentration (EC50) in data set [4] (setting [10]) was greater than 50000 nM; in data set [5] (setting [11]), greater than 50 µM; in data set [1] (setting [12]), greater than 50000 nM; in data set [6] (setting [13]), greater than 50 µM. Further, the MCC in data set [2] is 200 µM. The compound also displayed a CC50 in data set [7] of 171 µM.

Consider `O=c1nc2oc(-c3ccc(Cl)cc3)cc2cn1[C@H]1C[C@H](O)[C@@H](CO)O1` [Example 11], for which the EC50 in data set [4] (setting [9]) was 100 nM; in data set [5] (setting [9]), greater than 20 µM; in data set [1] (setting [8]), 80 nM; in data set [6] (setting [9]), greater than 20 µM. For the same compound, the MCC result in data set [2] is given as “≧20 μM”. In data set [3], this compound yielded a half-maximal cytotoxic concentration (CC50) greater than 200 µM.

For the compound `O=c1nc2oc(-c3ccc(Br)cc3)cc2cn1[C@H]1C[C@H](O)[C@@H](CO)O1` [Example 12, 3-(2′-deoxy-β-D-ribofuranosyl)-6-(4-bromophenyl)-2,3-dihydrofuro-[2,3-d]pyrimidin-2-one], the EC50 in data set [4] (setting [9]) is 290 nM; in data set [5] (setting [9]) it was greater than 5 µM; in data set [1] (setting [8]), 200 nM; in data set [6] (setting [9]) it was greater than 5 µM. This compound also gave an MCC in data set [2] greater than 2 µM. Besides, the CC50 in data set [3] was determined as 96 µM.

Take `COc1ccc(-c2cc3cn([C@H]4C[C@H](O)[C@@H](CO)O4)c(=O)nc3o2)cc1` [Example 14, 3-(2′-deoxy-β-D-ribofuranosyl)-6-(4-methoxyphenyl)-2,3-dihydrofuro-[2,3-d]pyrimidin-2-one]: the EC50 in data set [5] (setting [9]) is greater than 50 µM; in data set [1] (setting [8]) it was 50 nM; in data set [6] (setting [9]) it was greater than 50 µM. For the same compound, the MCC in data set [2] is 200 µM. In addition, the CC50 in data set [3] was greater than 200 µM.

Regarding `CCOc1ccc(-c2cc3cn([C@H]4C[C@H](O)[C@@H](CO)O4)c(=O)nc3o2)cc1` [Example 15, 3-(2′-deoxy-β-D-ribofuranosyl)-6-(4-ethoxyphenyl)-2,3-dihydrofuro-[2,3-d]pyrimidin-2-one], the EC50 in data set [5] (setting [9]) is greater than 50 µM; in data set [1] (setting [8]), 10 nM; in data set [6] (setting [9]), 50 µM. In data set [2], this compound had an MCC of 200 µM. This compound yielded a CC50 in data set [3] greater than 200 µM.

Consider `CCCOc1ccc(-c2cc3cn([C@H]4C[C@H](O)[C@@H](CO)O4)c(=O)nc3o2)cc1` [Example 16, 3-(2′-deoxy-β-D-ribofuranosyl)-6-(4-n-propoxyphenyl)-2,3-dihydrofuro-[2,3-d]pyrimidin-2-one], for which the EC50 in data set [5] (setting [9]) was greater than 50 µM; in data set [1] (setting [8]), 2 nM; in data set [6] (setting [9]) it was 11 µM. In data set [2], the MCC entry was “≧200 μM”. This compound displayed a CC50 in data set [3] greater than 200 µM.

Consider `CCCCCOc1ccc(-c2cc3cn([C@H]4C[C@H](O)[C@@H](CO)O4)c(=O)nc3o2)cc1` [Example 17, 3-(2′-deoxy-β-D-ribofuranosyl)-6-(4-n-pentoxyphenyl)-2,3-dihydrofuro-[2,3-d]pyrimidin-2-one], for which the EC50 in data set [5] (setting [9]) was greater than 20 µM; in data set [1] (setting [8]) it was 2 nM; in data set [6] (setting [9]), 3.7 µM. For the same compound, the MCC in data set [2] was greater than 50 µM. The compound further yielded a CC50 in data set [3] greater than 200 µM.

For the compound `CCCCCCOc1ccc(-c2cc3cn([C@H]4C[C@H](O)[C@@H](CO)O4)c(=O)nc3o2)cc1` [Example 18, 3-(2′-deoxy-β-D-ribofuranosyl)-6(4-n-hexoxyphenyl)-2,3-dihydrofuro-[2,3-d]pyrimidin-2-one], the EC50 was greater than 20 µM in data set [5] (setting [9]), 2 nM in data set [1] (setting [8]) and greater than 5 µM in data set [6] (setting [9]). Besides, the MCC in data set [2] was greater than 20 µM. Besides, the CC50 in data set [3] was greater than 200 µM.

Take `CCCCCCCOc1ccc(-c2cc3cn([C@H]4C[C@H](O)[C@@H](CO)O4)c(=O)nc3o2)cc1` [Example 19, 3-(2′-deoxy-β-D-ribofuranosyl)-6-(4-n-heptoxyphenyl)-2,3-dihydrofuro-[2,3-d]pyrimidin-2-one]: the concentration giving a half-maximal response (EC50) is greater than 20 µM in data set [5] (setting [9]), 2 nM in data set [1] (setting [8]) and greater than 50 µM in data set [6] (setting [9]). Moreover, in data set [2], the MCC result was “≧50 μM”. Further, the CC50 in data set [3] is greater than 200 µM.
